Laboratory results published in publication PMC10290954 (Nature Metabolism, 2023).

Columns and labels:
[1] = biological target: T1, mouse GIP receptor (Mus musculus, UniProt Q0P543); experiment: cAMP generation (Glosensor), mouse GIPR; format: cell-based; design: expressed in transfected cells; host or cells: low-receptor-density clonal cell lines; details: for HillSlope / Span (four parameter fit) / Top (four parameter fit) / Bottom (four parameter fit): mGIP-R HEK-293 cells, cAMP formation; for HillSlope: four parameter fit - normalized; for Span (four parameter fit) / Top (four parameter fit) / Bottom (four parameter fit): max signal = 100 nM human GIP(1-42)NH2, normalized
T1 sequence (Q0P543 19-460): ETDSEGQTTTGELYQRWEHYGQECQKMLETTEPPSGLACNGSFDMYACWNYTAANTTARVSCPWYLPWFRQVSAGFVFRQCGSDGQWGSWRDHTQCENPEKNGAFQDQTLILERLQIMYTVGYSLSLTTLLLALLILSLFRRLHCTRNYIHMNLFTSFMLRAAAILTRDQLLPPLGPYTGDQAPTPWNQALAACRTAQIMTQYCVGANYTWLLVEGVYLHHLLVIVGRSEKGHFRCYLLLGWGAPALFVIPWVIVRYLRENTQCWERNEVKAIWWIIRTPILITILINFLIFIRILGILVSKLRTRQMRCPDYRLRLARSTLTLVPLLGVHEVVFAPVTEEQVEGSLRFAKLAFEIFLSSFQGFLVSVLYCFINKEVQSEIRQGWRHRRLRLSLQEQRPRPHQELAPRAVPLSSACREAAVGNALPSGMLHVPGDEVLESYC
Method: (§1) Methods for these assays have been previously described. In brief, for GTPγs binding, the potency of ligands to stimulate receptor-dependent elevation of the GTPγS-bound Gαs subunit was determined using membrane preparations from low-receptor-density receptor clonal cell lines. Reactions were incubated for 30 min at room temperature in white, clear-bottom microtiter plates, and per cent of the maximal response was calculated using control wells as a reference. Relative EC50 values were derived by nonlinear regression analysis using the per cent response versus the concentration of ligand and fitted to a four-parameter logistic equation using GraphPad Prism 7 software. For cAMP assays, kinetic cAMP assays were performed in low-density receptor cell clones transfected with the Glosensor 22 F vector (Promega). Cells were equilibrated for 5–20 min and then 20 μl of 10× ligand was added and a luminescence time course was collected. Ligand (10×) was titrated by manual serial dilution in DMSO followed by step-down into assay buffer.

[2] = test system: human islets; experiment: Human islet perifusion, insulin secretion with Ex9 or hGIP(3-30) (Extended Data Fig. 2); format: cell-based; details: two donor sets, 30 nM tirzepatide, antagonist 1 μM
Method: Human islets were obtained from both the Alberta Diabetes Institute and the Integrated Islet Distribution Program. All islets were obtained from consenting donors. Details for the general perifusion protocol have been previously described[21] and are similar to the mouse perifusion protocol. […] Each set of human islets consisted of n = 3 for each condition. These were averaged to generate a single data point (Fig. 2c). Insulin values were measured with a Lumit insulin immunoassay (Promega) using an EnVision plate reader (PerkinElmer). For the glucagon secretion experiments (Fig. 3), the average glucagon values were calculated during control (minutes 35–45) and stimulated (minutes 55–65) conditions. All peptides were used at 30 nM concentrations based on previous work[16]. Amino acids were used at concentrations of 3 mM based on previous work[11]. Glucagon was measured with a Lumit Glucagon Immunoassay Kit (cat. no. CS3037A02; Promega) using an EnVision plate reader (PerkinElmer). Somatostatin was measured with an ELISA assay (cat. no. FEK-060-14; Phoenix Pharmaceuticals). All data are expressed as the measured concentration relative to both flow rate and islet number (insulin, ng ml^–1 × (1/200 µl ml^–1) × (1/75 islets); glucagon, pM × (1/200 µl ml^–1) × (1/75 islets); somatostatin, pg ml^–1 × (1/200 µl ml^–1) × (1/75 islets))[49]. Human pancreatic islets and pancreas tissue were isolated from deceased donors under ethical approval from the Human Research Ethics Board of the University of Alberta (Pro00013094, Pro00001754) and obtained from the NIDDK-funded Integrated Islet Distribution Program (IIDP) (RRID: SCR _014387). All donors’ families gave informed consent for the use of pancreatic tissue in research and were not financially compensated.
The integrated area under the curve (iAUC) was calculated for both glucose and tirzepatide stimulated insulin secretion using the value of the first time point as the baseline. All values are mean + /- SEM, n = 3/group. A one-way ANOVA with Tukey’s posthoc test was used. Source data

[3] = biological target: T1, mouse GIP receptor; experiment: [35S]GTPγS binding, mouse GIPR; format: biochemical; design: expressed in transfected cells; host or cells: low-receptor-density clonal cell lines; details: mGIPR GTPgS
Method: as §1, with “collected.” for “collected. Ligand (10×) was titrated by manual serial dilution in DMSO followed by step-down into assay buffer.”

[4] = biological target: T2, mouse GIP receptor (mGIPR), cloned, in membranes of HEK cells (mouse) (UniProt Q0P543)
T2 sequence: T1 sequence (Q0P543 19-460)

[5] = biological target: T3, mouse GIP receptor (mGIPR), transiently expressed in HEK293T cells for BRET (mouse) (UniProt Q0P543)
T3 sequence: T1 sequence (Q0P543 19-460)

Question: Which Emax ([1]; HEK293, read-out: Arthmetic Mean Emax) does the source give for CC[C@H](C)[C@H](NC(=O)[C@H](CO)NC(=O)[C@H](Cc1ccc(O)cc1)NC(=O)[C@H](CC(=O)O)NC(=O)[C@H](CO)NC(=O)[C@@H](NC(=O)[C@H](Cc1ccccc1)NC(=O)[C@@H](NC(=O)CNC(=O)[C@H](CCC(=O)O)NC(=O)[C@H](C)NC(=O)[C@@H](N)Cc1ccc(O)cc1)[C@@H](C)O)[C@@H](C)CC)C(=O)N[C@@H](C)C(=O)N[C@@H](CCSC)C(=O)N[C@@H](CC(=O)O)C(=O)N[C@@H](CCCCN)C(=O)N[C@H](C(=O)N[C@@H](CCCNC(=N)N)C(=O)N[C@@H](CCC(N)=O)C(=O)N[C@@H](CCC(N)=O)C(=O)N[C@@H](CC(=O)O)C(=O)N[C@@H](Cc1ccccc1)C(=O)N[C@H](C(=O)N[C@@H](CC(N)=O)C(=O)N[C@@H](Cc1c[nH]c2ccccc12)C(=O)N[C@@H](CC(C)C)C(=O)N[C@@H](CC(C)C)C(=O)N[C@@H](C)C(=O)N[C@@H](CCC(N)=O)C(=O)N[C@@H](CCCNC(=N)N)C(=O)NCC(=O)N[C@@H](CCCCN)C(=O)N[C@@H](CCCCN)C(=O)N[C@@H](CO)C(=O)N[C@@H](CC(=O)O)C(=O)N[C@@H](Cc1c[nH]c2ccccc12)C(=O)N[C@@H](CCCCN)C(=O)N[C@@H](Cc1c[nH]cn1)C(=O)N[C@@H](CC(N)=O)C(=O)N[C@H](C(=O)N[C@H](C(=O)N[C@@H](CCC(N)=O)C(N)=O)[C@@H](C)O)[C@@H](C)CC)C(C)C)[C@@H](C)CC [mouse GIP(1-42)NH2] here?
Answer: 103%

Question: What about the HillSlope ([1]; run 2022-10-04, replicate 1) of the same molecule?
Answer: 0.8118

Question: What about the HillSlope ([1]; run 2022-10-04, replicate 2) of the same molecule?
Answer: 0.9861

Question: And the HillSlope ([1]; run 2022-10-06, replicate 1)?
Answer: 0.7723

Question: What about the HillSlope ([1]; run 2022-10-06, replicate 2) of the same molecule?
Answer: 0.9288

Question: What about the HillSlope ([1]; run 2022-10-12) of the same molecule?
Answer: 1.095

Question: And the “Span (four parameter fit)” value ([1]; run 2022-10-04, replicate 1)?
Answer: 112.9 Percent Max-Min

Question: What about the “Top (four parameter fit)” value ([1]; run 2022-10-04, replicate 1) of the same molecule?
Answer: 112.9 Percent Max-Min

Question: And the “Span (four parameter fit)” value ([1]; run 2022-10-04, replicate 2)?
Answer: 111.3 Percent Max-Min

Question: What about the “Top (four parameter fit)” value ([1]; run 2022-10-04, replicate 2) of the same molecule?
Answer: 106.4 Percent Max-Min

Question: What about the “Bottom (four parameter fit)” value ([1]; run 2022-10-06, replicate 1) of the same molecule?
Answer: -5.431 Percent Max-Min

Question: What about the “Span (four parameter fit)” value ([1]; run 2022-10-06, replicate 1) of the same molecule?
Answer: 105.7 Percent Max-Min

Question: And the “Top (four parameter fit)” value ([1]; run 2022-10-06, replicate 1)?
Answer: 100.3 Percent Max-Min

Question: And the “Bottom (four parameter fit)” value ([1]; run 2022-10-06, replicate 2)?
Answer: -2.463 Percent Max-Min

Question: And the “Span (four parameter fit)” value ([1]; run 2022-10-06, replicate 2)?
Answer: 102 Percent Max-Min

Question: What about the “Top (four parameter fit)” value ([1]; run 2022-10-06, replicate 2) of the same molecule?
Answer: 99.51 Percent Max-Min

Question: What about the “Bottom (four parameter fit)” value ([1]; run 2022-10-12) of the same molecule?
Answer: -1.282 Percent Max-Min

Question: And the “Span (four parameter fit)” value ([1]; run 2022-10-12)?
Answer: 97.15 Percent Max-Min

Question: And the “Top (four parameter fit)” value ([1]; run 2022-10-12)?
Answer: 95.87 Percent Max-Min

Question: For “hGIP(3-30): a different GIPR antagonist that has been previously characterized (ref 27) (EGTFISDYSIAMDKIHQQDFVNWLLAQK; Gastric inhibitory polypeptide; UniProt P09681 54-81, looked up, fragment)”, which “Effect on tirzepatide-stimulated insulin secretion” value [2] is on record?
Answer: A similar outcome

Question: For CC[C@H](C)[C@H](NC(=O)[C@H](CO)NC(=O)[C@H](Cc1ccc(O)cc1)NC(=O)[C@H](CC(=O)O)NC(=O)[C@H](CO)NC(=O)[C@@H](NC(=O)[C@H](Cc1ccccc1)NC(=O)[C@@H](NC(=O)CNC(=O)[C@H](CCC(=O)O)NC(=O)[C@H](C)NC(=O)[C@@H](N)Cc1ccc(O)cc1)[C@@H](C)O)[C@@H](C)CC)C(=O)N[C@@H](C)C(=O)N[C@@H](CCSC)C(=O)N[C@@H](CC(=O)O)C(=O)N[C@@H](CCCCN)C(=O)N[C@H](C(=O)N[C@@H](Cc1c[nH]cn1)C(=O)N[C@@H](CCC(N)=O)C(=O)N[C@@H](CCC(N)=O)C(=O)N[C@@H](CC(=O)O)C(=O)N[C@@H](Cc1ccccc1)C(=O)N[C@H](C(=O)N[C@@H](CC(N)=O)C(=O)N[C@@H](Cc1c[nH]c2ccccc12)C(=O)N[C@@H](CC(C)C)C(=O)N[C@@H](CC(C)C)C(=O)N[C@@H](C)C(=O)N[C@@H](CCC(N)=O)C(=O)N[C@@H](CCCCN)C(=O)NCC(=O)N[C@@H](CCCCN)C(=O)N[C@@H](CCCCN)C(=O)N[C@@H](CC(N)=O)C(=O)N[C@@H](CC(=O)O)C(=O)N[C@@H](Cc1c[nH]c2ccccc12)C(=O)N[C@@H](CCCCN)C(=O)N[C@@H](Cc1c[nH]cn1)C(=O)N[C@@H](CC(N)=O)C(=O)N[C@H](C(=O)N[C@H](C(=O)N[C@@H](CCC(N)=O)C(N)=O)[C@@H](C)O)[C@@H](C)CC)C(C)C)[C@@H](C)CC [hGIP], which Emax ([3]; run of 2019-03-15) is on record?
Answer: 91.9%

Question: What about the Emax ([3]; run of 2019-04-02) of the same molecule?
Answer: 91.5%

Question: And the Emax ([3]; run of 2019-06-28)?
Answer: 93.8%

Question: What about the Emax ([3]; run of 2022-02-17) of the same molecule?
Answer: 93.1%

Question: What does the source list for “human glucose-dependent insulinotropic polypeptide (hGIP) (from UniProt P09681 52-93)”?
Answer: [35S]GTPγS binding (G-protein activation), EC50 [4]: 0.735 nM; [35S]GTPγS binding (G-protein activation), Emax [4]: 96.7%; cAMP generation, EC50 [4]: 46 pM; Gs recruitment (ligand-induced BRET), EC50 [5]: 153 nM; Gs recruitment (ligand-induced BRET), Emax [5]: 101%
